Laboratory results published in US20050209446A1, “Novel 15-membered cyclic azalide, novel 16-membered cyclic diazalide derivative, and process for producing these” (Meiji Seika Kaisha Ltd., priority 2002, published 2005).
In brackets after ≈: the same amount, converted by molar mass.

Columns and labels:
[1] = assay type: in vitro ADME, mouse
Protocol: Antibacterial activities of the compound of Example 19 after treatment with mouse liver homogenate were examined as follows. Antibacterial activities of MOM were examined in the same manner for comparison. The liver was collected from a mouse, and added with a phosphate buffer to prepare 5% homogenate. A 50 μl of the test drug solution, dissolved in methanol so as to be 150 μg/ml, was added to 1.45 ml of the mouse liver homogenate, and the mixture was allowed to react at 37° C. Each portion of the reaction mixture was collected at the beginning of the reaction, and after 10, 20 and 40 minutes, and added with a given volume of an acetonitrile solution to prepare each bioassay sample for the measurement of a concentration of the test drug. […] After the incubation, a diameter of growth inhibitory circle of Micrococcus luteus ATCC9341 observed around the paper disc was measured with a digital slide calipers. […] On the basis of a calibration curve which was drawn from the concentrations and the diameters of growth inhibitory circles of the standard solutions, residual activities of the samples at the above sampling times were calculated, and compared with antibacterial activities at the beginning of the reaction.

test bacteria = assay: Antibacterial activity test in vitro, overall statement; assay type: cell-based; conditions: summary of Table 1
Protocol: (§1) Antibacterial activities in vitro of the compounds of Examples 19 and 25 were measured as follows by referring to the standard method of Japanese Society of Chemotherapy (Chemotherapy, Vol. 29, p. 76-79, 1981). Antibacterial activities of miokamycin (MOM) was measured in the same manner for comparison.
For each of the solutions of the test drugs, which were dissolved in methanol so as to be 6,400 μg/ml, serial two-fold diluents with methanol were prepared. Each 200 μl of the test drug solutions prepared was placed in a laboratory dish, and the agar medium for sensitivity measurement, which was added with 5% equine sterile defibrinated blood, 15 μg/ml, β-Nicotinamide-adenine dinucleotide and 2.5 μg/ml hemin, was dispensed in 10 ml aliquots into the dish and then mixed with the solution for dilution to prepare the agar plate containing the test drug. A given amount of the liquid medium for the sensitivity measurement, which was prepared so as to contain a given amount of test bacterium was inoculated on the agar plate containing the test drug by a microplanter (Sakuma Seisakusyo, Co. Ltd.), and after the inoculation, the plate was incubated at 37° C. for about 20 hours. […]

[2] = tested on: Streptococcus pneumoniae IP692; assay: Antibacterial activity test in vitro (agar dilution MIC); assay type: cell-based; conditions: blood agar medium, 37° C., about 20 hours
Protocol: as §1
(§2) For each of the solutions of the test drugs, which were dissolved in methanol so as to be 6,400 μg/ml, serial two-fold diluents with methanol were prepared. Each 200 μl of the test drug solutions prepared was placed in a laboratory dish, and the agar medium for sensitivity measurement, which was added with 5% equine sterile defibrinated blood, 15 μg/ml, β-Nicotinamide-adenine dinucleotide and 2.5 μg/ml hemin, was dispensed in 10 ml aliquots into the dish and then mixed with the solution for dilution to prepare the agar plate containing the test drug. A given amount of the liquid medium for the sensitivity measurement, which was prepared so as to contain a given amount of test bacterium was inoculated on the agar plate containing the test drug by a microplanter (Sakuma Seisakusyo, Co. Ltd.), and after the inoculation, the plate was incubated at 37° C. for about 20 hours. After the incubation, the existence of growth of the test bacterium was visually observed, and a minimum concentration at which no growth was observed was defined as a minimum inhibitory concentration of a test drug (MIC) against each of test bacteria.

[3] = tested on: Staphylococcus aureus Smith; assay: as above; assay type: cell-based; conditions: blood agar medium, 37° C., about 20 hours
Protocol: as §1, §2

[4] = tested on: Micrococcus luteus ATCC9341; assay: as above; assay type: cell-based; conditions: blood agar medium, 37° C., about 20 hours
Protocol: as §1, §2

[5] = tested on: Haemophilus influenzae 9334; assay: as above; assay type: cell-based; conditions: blood agar medium, 37° C., about 20 hours
Protocol: as §1, §2

[6] = tested on: Streptococcus pneumoniae DP1 TypeI; assay: as above; assay type: cell-based; conditions: blood agar medium, 37° C., about 20 hours
Protocol: as §1, §2

[7] = tested on: Moraxella catarrhalis W-0506; assay: as above; assay type: cell-based; conditions: 37° C., about 20 hours; for Minimum inhibitory concentration (MIC): blood agar medium
Protocol: as §1, §2

[8] = read-out: Minimum inhibitory concentration (MIC)

CCC(=O)O[C@@H]1CC(=O)O[C@H](C)CCN(CCCCc2ccccc2)C[C@H](O)[C@H](C)C[C@H](CC=O)[C@H](O[C@@H]2O[C@H](C)[C@@H](O[C@H]3C[C@@](C)(OC(C)=O)[C@@H](OC(=O)CC)[C@H](C)O3)[C@H](N(C)C)[C@H]2O)[C@H]1OC [Example 19]
residual antibacterial activities after treatment with mouse liver homogenate, compared with the start of the reaction [1]: no decrease in antibacterial activities
antibacterial activities compared with MOM (test bacteria): higher antibacterial activities than MOM
Minimum inhibitory concentration (MIC) [2]: 0.13 µg/mL (≈ 0.133 µM)
Minimum inhibitory concentration (MIC) [3]: 0.5 µg/mL (≈ 0.511 µM)
Minimum inhibitory concentration (MIC) [4]: 0.03 µg/mL (≈ 0.0306 µM)
Minimum inhibitory concentration (MIC) [5]: 2 µg/mL (≈ 2.04 µM)
Minimum inhibitory concentration (MIC) [6]: 0.06 µg/mL (≈ 0.0613 µM)
Minimum inhibitory concentration (MIC) [7]: 0.25 µg/mL (≈ 0.255 µM)

CCC(=O)O[C@@H]1CC(=O)O[C@H](C)CCN(CCCc2ccnc3ccccc23)C[C@H](O)[C@H](C)C[C@H](CC=O)[C@H](O[C@@H]2O[C@H](C)[C@@H](O[C@H]3C[C@@](C)(OC(C)=O)[C@@H](OC(=O)CC)[C@H](C)O3)[C@H](N(C)C)[C@H]2O)[C@H]1OC [Example 25, (−)-(3R,4S,5S,6R,8R,9R,14R)-5-[4-O-(3-O-acetyl-2,6-dideoxy-3-C-methyl-4-O-propionyl-α-L-ribo-hexopyranosyl)-3,6-dideoxy-3-dimethylamino-8-D-glucopyranosyl]-6-formylmethyl-9-hydroxy-4-methoxy-8-methyl-3-propionyloxy-11-(3-(quinolin-4-yl)propyl)-11-aza-pentadecan-14-olide]
antibacterial activities compared with MOM (test bacteria): higher antibacterial activities than MOM
Minimum inhibitory concentration (MIC) [2]: 0.06 µg/mL (≈ 0.059 µM)
Minimum inhibitory concentration (MIC) [3]: 0.5 µg/mL (≈ 0.492 µM)
Minimum inhibitory concentration (MIC) [4]: 0.03 µg/mL (≈ 0.0295 µM)
Minimum inhibitory concentration (MIC) [5]: 1 µg/mL (≈ 0.984 µM)
Minimum inhibitory concentration (MIC) [6]: 0.06 µg/mL (≈ 0.059 µM)
Minimum inhibitory concentration (MIC) [7]: 0.25 µg/mL (≈ 0.246 µM)

CCC(=O)O[C@@H]1CC(=O)O[C@H](C)C/C=C/C=C/[C@H](OC(C)=O)[C@H](C)C[C@H](CC=O)[C@H](O[C@@H]2O[C@H](C)[C@@H](O[C@H]3C[C@@](C)(OC(C)=O)[C@@H](OC(=O)CC)[C@H](C)O3)[C@H](N(C)C)[C@H]2O)[C@H]1OC [MOM, miokamycin, reference compound]
residual antibacterial activities after treatment with mouse liver homogenate, compared with the start of the reaction [1]: apparent decreases in antibacterial activities
MIC [2, 8]: 0.25 µg/mL (≈ 0.278 µM)
MIC [3, 8]: 1 µg/mL (≈ 1.11 µM)
MIC [4, 8]: 0.13 µg/mL (≈ 0.145 µM)
MIC [5, 8]: 4 µg/mL (≈ 4.45 µM)
MIC ([6]; DP1TYPEI, read-out: Minimum inhibitory concentration (MIC)): 0.25 µg/mL (≈ 0.278 µM)
MIC ([7]; W0506, blood agar medium, read-out: Minimum inhibitory concentration (MIC)): 1 µg/mL (≈ 1.11 µM)
